Target: T1, intact recombinant antibody against clothianidin and dinotefuran (Mus musculus, UniProt P01837+P01868)
T1 construct: The heavy and light chain variable region genes were ligated to linearized expression vectors pCDNA3.4-Mouse-IgG1 and pCDNA3.4-Mouse-Kappa; mouse IgG1 heavy chain constant region (fusion partner); mouse kappa light chain constant region (fusion partner); made in house; host or cells: HEK293F cells, double-plasmid transfection, Protein A purification
Experiment: heterologous indirect competitive ELISA (thiacloprid-OVA coating antigen)
Type: binding
Method: In the early stage of preparation of parental ascitic monoclonal antibodies, a difference in sensitivity was compared between the homologous indirect competitive ELISA (coating antigen was clothianidin-OVA) and the heterologous indirect ELISA (coating antigens were thiacloprid-OVA and imidaclothiz-OVA).
In the present disclosure, the specificity of the antibody was evaluated by detecting the cross-reactivity with eight common neonicotinoid insecticides.

Structure (SMILES) | linear range (IC20 to IC80) [ng/mL]
CN/C(=N\[N+](=O)[O-])NCc1cnc(Cl)s1 [clothianidin] | 1.08 to 15.06
CN/C(=N/CC1CCOC1)N[N+](=O)[O-] (centres unmarked) [dinotefuran] | 3.78 to 30.03
